Structures can show the parent of a compound that is named as a salt. Where two headings read alike, the source gives them in different places.
Tests used:
[1] = tested on: Mat Tek Epiderm FT human skin equivalent tissues; conditions: for Dose-normalized skin irritation potential, fold lower than 0.1 M PFB EtOH formulation: interleukin-1α release divided by applied dose, neat melt, FIG. 8A; for skin irritation potential normalized to delivered dose in acceptor, fold lower than 0.1 M PFB EtOH formulation: interleukin-1α release divided by delivered dose in acceptor compartment, FIG. 8B
Procedure: Evaluation was conducted using human skin equivalent tissues (Epiderm™) with a human interleukin-1α ELISA kit. Interleukin-1α release has been previously established as an indicator for skin irritation and affords evaluating irritation without requiring removal of the test formulation from skin tissues, a potentially damaging process to the tissues when studying viscous formulations. 0.1 M and 0.2 M PFB EtOH formulations, positive control (5% sodium dodecyl sulfate (SDS) in PBS), negative control (PBS) and EtOH solvent control were also evaluated.
Skin irritation was assessed by measuring interleukin-1α release from Mat Tek Epiderm FT™ human skin equivalent tissues (MatTek Corporation, Ashland, Mass.). Experiments were performed according to the manufacturer's recommended protocol. Briefly, new media was added immediately before application of formulations. Formulations were applied to the surface of the tissues for 4 hours. After 4 hours, 200 μL of media was collected for interleukin-la analysis. Interleukin-la release was quantified using a Human Interleukin-la ELISA Kit (Pierce Biotechnology Inc., Rockford, Ill.) according to the manufacturer's recommended Protocol. ThermoFisher Scientific. Instructions of Human IL-1α ELISA Kit. Retrieved from https://www.thermofisher.com/order/catalog/product/EH2IL1A (2014). Absorbance of blank (0 pg/mL Interleukin-1α) was subtracted from absorbance of each sample.

[2] = porcine skin, 24 hours, 37° C.
Procedure: Franz diffusion cells were used to assess the skin transport of propranolol melts or ionic liquids using a previously established protocol described in Karande, P., et al., Discovery of transdermal penetration enhancers by high-throughput screening. […] Briefly, the acceptor chamber was filled with degas sed PBS or 4% bovine serum albumin in PBS and a small stir bar was added. Thawed porcine skin was clamped in place between the acceptor and donor chambers with the SC facing up. Care was taken to ensure no air bubbles resided in the acceptor chamber, and skin was stretched to minimize the presence of furrows. PFB solution in either IPM or EtOH was spiked with the 3H-labeled propranolol free base solution to a final concentration of 10 μCi/mL. Alternatively, 3H-labeled propranolol melts or ionic liquids were used as donor formulations. […] Samples from each tissue layer and acceptor solution were dissolved in Solvable (Perkin Elmer, Waltham, Mass.) overnight, and the amount of propranolol was measured using a scintillation counter and standard solution of radiolabeled donors. […] Furthermore, permeability (Kp) was calculated using the following equation, where Jss is the steady-state flux calculated as the slope of the linear portion of the plot of the cumulative amount permeated per unit area versus time, and C is propranolol concentration in donor. […]

[3] = Molar conductivity (neat, in water, in n-octanol); assay type: physicochemical; conditions: for molar conductivity in n-octanol: 1.32 mM PRL:C8, 1.24 mM PRL:C5, mean±SD; for molar conductivity in water in comparison to sodium chloride: 25° C. and 37° C., FIGS. 9A and 9B
[4] = neat melt, SD of three measurements in parentheses
Procedure: Standard deviations of three measurements are provided in parentheses.
Viscosity was measured using 1-mL samples with a LC-ARES Test Station (TA Instruments, New Castle, Del.) and a cone (diameter: 25 mm; angle: 0.1 rad). The cone rotation rate was 10 s^−1 and viscosity was measured three times per sample at 25° C. and 37° C. Differential scanning calorimetry (DSC) was performed with a Q2000 DSC with 50 position autosampler (TA Instruments, New Castle, Del.). Sample size was 9-10 mg, and was weighed in an aluminum hermetic pan. Samples were heated from room temperature to 120° C. under N2 atmosphere followed by cooling to […] and subsequent heating back to 120° C. with a ramp rate of 10° C. per minute.

[5] = Partition coefficient n-octanol/water (log Po/w); assay type: physicochemical
Procedure: Lipophilicity of propranolol melts or ionic liquids, measured as partition coefficient n-octanol/water (log Po/w), varied depending on the carbon chain length of the counter species (FIG. 6C). The log Po/w of propranolol melts or ionic liquids ranged from 0.76 to 1.76, and were between −0.41 of PRL:Cl and 3.12 of PFB.
A 250 mL volume of n-octanol was shaken with 25 mL of ddH2O and left overnight to obtain n-octanol saturated with water. A 250 mL volume of ddH2O was shaken with 25 mL of n-octanol and left overnight to obtain water saturated with n-octanol. Ten milliliters of saturated n-octanol was added to each 3H-labeled propranolol melt or ionic liquid (6-10 mg) in a 20-mL scintillation vial followed by stirring until the melt or ionic liquid was dissolved completely. 10 mL saturated water was shaken with 10 mL of the 3H-labeled propranolol melt or ionic liquid solution in octanol for 1 minute, followed by 2 minutes of gentle centrifugation (1000 rpm, 74×g, Allegra X-12R centrifuge, FX6100 rotor, Beckman Coulter, Brea, Calif.) to obtain clean separation of the two layers. […] The partition coefficient n-octanol/water was calculated as the logarithm of the concentration of propranolol in octanol divided by the concentration of propranolol in water.

[6] = Solubility in organic and aqueous solvents; assay type: physicochemical

| SMILES | molar conductivity in n-octanol ([3]; 25° C.) [S cm^2/mol] | molar conductivity in n-octanol ([3]; 37° C.) [S cm^2/mol] | molar conductivity in water in comparison to sodium chloride ([3]; water) | Dose-normalized skin irritation potential, fold lower than 0.1 M PFB EtOH formulation ([1]; 4 hours) [fold] | skin irritation potential normalized to delivered dose in acceptor, fold lower than 0.1 M PFB EtOH formulation [1] [fold] | Propranolol Melt Viscosity ([4]; 25° C.) | Propranolol Melt Viscosity ([4]; 37° C.) | partition coefficient n-octanol/water (log Po/w) [5] | also measured |
| --- | --- | --- | --- | --- | --- | --- | --- | --- | --- |
| CCCCCCCCCCCCOS(=O)(=O)[O-].[Na+] [5% SDS in PBS, Sodium dodecyl sulfate, reference compound] |  |  |  |  |  |  |  |  | Interleukin-1α release (irritation) ([1]; 4 hours, FIG. 14A): highest amount of irritation |
| CC(C)NCC(O)COc1cccc2ccccc12.CCCCC(CC)COC(=O)CC(C(=O)OCC(CC)CCCC)S(=O)(=O)O (stereo not shown) [PRL:C8, propranolol dioctyl sulfosuccinate] | 0.49±0.01 | 0.51±0.01 | much lower molar conductivity | 11 | 40 | 70.4 (0.9) Pa s | 16.9 (0.1) Pa s |  | amount of propranolol delivered into skin layers and acceptor [2]: delivery enhancement into each layer; skin permeability (flux normalized by applied dose) [2]: highest permeability among analog melts or ionic liquids; molar conductivity in water, fold lower than PRL:C5 ([3]; water, 37° C., concentrations >1 mM): ~10 fold; difference in skin irritation potential between PRL:C8 and PRL:C5 ([1]; dose-normalized, FIGS. 8A and 8B): ~10 fold |
| CC(C)NCC(O)COc1cccc2ccccc12.CCCCCCOC(=O)CC(C(=O)OCCCCCC)S(=O)(=O)O (stereo not shown) [PRL:C6, propranolol dihexyl sulfosuccinate] |  |  |  |  |  | 1889.4 (325.2) Pa s | 180.9 (10.8) Pa s |  |  |
| CC(C)NCC(O)COc1cccc2ccccc12 (stereo not shown) [PRL:Cl, propranolol hydrochloride] |  |  |  |  |  |  |  | −0.41 | solubility ([6]; methanol, organic solvent or mixture, read-out: solubility in methanol): 510 mM; solubility ([6]; water, read-out: solubility in water): 170 mM |
| CC(C)NCC(O)COc1cccc2ccccc12.CCCCCOC(=O)CC(C(=O)OCCCCC)S(=O)(=O)O (stereo not shown) [PRL:C5, propranolol diamyl sulfosuccinate] | 0.35±0.01 | 0.40±0.01 | much lower molar conductivity | 1.7 | 3.7 | 59.5 (1.6) Pa s | 14.7 (0.2) Pa s |  |  |
| CC(C)NCC(O)COc1cccc2ccccc12 (stereo not shown) [PFB, propranolol free base] |  |  |  |  |  |  |  | 3.12 |  |

From patent US10828265B2, “Formulations of propranolol and analogs as an amorphous melt or ionic liquid for transdermal drug delivery” (The Regents of the University of California, priority 2016, dated 2020)
